Source: PubChem BioAssay (NCI)
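1) Cells in 96-well plates. 2) Compound, 48 h, 5 concentrations. 3) Linear interpolation between surrounding doses. 4) Unreached endpoint = highest concentration. TGI marks complete inhibition of growth.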

What was measured:
Experiment in all cases: DTP human tumour cell line panel, 48 h
MDA-MB-231 breast = system: MDA-MB-231 breast
SNB-19 CNS = system: SNB-19 CNS
EKVX NSCLC = system: EKVX NSCLC
T-47D breast = system: T-47D breast
HCT-15 colon = system: HCT-15 colon
SW-620 colon = system: SW-620 colon
OVCAR-8 ovarian = system: OVCAR-8 ovarian
HT29 colon = system: HT29 colon
CCRF-CEM leukemia = system: CCRF-CEM leukemia
LOX IMVI melanoma = system: LOX IMVI melanoma

| SMILES | TGI (MDA-MB-231 breast) | TGI (SNB-19 CNS) | TGI (EKVX NSCLC) | TGI (T-47D breast) | TGI (HCT-15 colon) | TGI (SW-620 colon) | TGI (OVCAR-8 ovarian) | TGI (HT29 colon) | TGI (CCRF-CEM leukemia) | TGI (LOX IMVI melanoma) |
| --- | --- | --- | --- | --- | --- | --- | --- | --- | --- | --- |
| c1ccc2c(c1)Cn1c-2nc2ccccc21 | > 100 µM | > 100 µM | > 100 µM | > 100 µM | > 100 µM | > 100 µM | > 100 µM | > 100 µM | > 100 µM | > 100 µM |
| COP(=O)(OC)C1=c2c(C)noc2=C2C=COC2C1=O (stereo unspecified) | > 100 µM | > 100 µM | > 100 µM |  | > 100 µM | > 100 µM | > 100 µM | > 100 µM | > 100 µM | > 100 µM |
| CC(C)c1cc2c(cc1S(=O)(=O)O)[C@@]1(C)CCC[C@@](C)(C(=O)O)C1CC2 (stereo partly specified) | > 100 µM | > 100 µM | > 100 µM | > 100 µM | > 100 µM | > 100 µM | > 100 µM | > 100 µM | > 100 µM | > 100 µM |
| CCC(=O)NCC1CCCN2CCCCC12 (stereo unspecified) | > 100 µM | > 100 µM | > 100 µM | > 100 µM | > 100 µM | > 100 µM | > 100 µM | > 100 µM | > 100 µM | > 100 µM |
| [N-]=[N+]=NC(c1ccccc1)(c1ccccc1)c1ccccc1 | 31.2 µM | 39.5 µM | 27.8 µM | 38.4 µM | 40.5 µM | 40.5 µM | 35.1 µM | 32.6 µM | 55.4 µM | 45.3 µM |
| CC(=O)c1c2c(c3ccccc3c1O)O[C@@H]1OCC[C@H]21 | > 100 µM | > 100 µM | > 100 µM | > 100 µM | > 100 µM | > 100 µM | > 100 µM | > 100 µM | > 100 µM | > 100 µM |
| O=C(C1OC1c1ccc(Br)cc1O)C12CC3CC(CC(C3)C1)C2 (stereo unspecified) | 43.6 µM | > 100 µM | > 100 µM | > 100 µM | 47 µM | 35.4 µM | > 100 µM | > 100 µM | > 100 µM | 28.7 µM |
| COC(=O)C1CC(C=[N+](C)C)=C(SC)N1C(=O)OCc1ccccc1 (stereo unspecified) | > 100 µM | > 100 µM | > 100 µM | > 100 µM | > 100 µM | > 100 µM | > 100 µM | > 100 µM |  |  |
| CC(=O)Oc1cccc2c1C(=O)CCCC2 | > 100 µM | > 100 µM | > 100 µM | > 100 µM | > 100 µM | > 100 µM | > 100 µM | > 100 µM | > 100 µM | > 100 µM |
| O=C(/C=C/c1ccc2c(c1)OCO2)c1ccc(O)cc1 | 31.5 µM | 30.5 µM | 30.3 µM |  | 27.5 µM | 26.3 µM | 3.11 µM | 29.8 µM | 35.3 µM | 24.8 µM |
| COc1nncc2[nH]c(-c3ccccc3)cc12 | > 100 µM | > 100 µM | > 100 µM | > 100 µM | > 100 µM | > 100 µM | > 100 µM | > 100 µM | > 100 µM | > 100 µM |
